Laboratory results reported in patent US5861413A, “2-oxo- and 2-thio-1,2-dihydroquinolinyl-oxazolidinones” (Bayer Aktiengesellschaft, priority 1996, dated 1999).
In brackets after ≈: the same amount, converted by molar mass. Read-outs that look alike come from different tables or passages of the source.

Legend:
Assay type in all cases: cell-based
Psdm. Bonn = assay: MIC by serial dilution on Iso-Sensitest agar, Psdm. Bonn; conditions: 37° C., about 20 hours, about 10^4 colony-forming particles
Procedure: (§1) The minimum inhibitory concentrations (MIC) there determined by the serial dilution method on Iso-Sensitest agar (Oxoid). For each test substance, a number of agar plates were prepared which, at twice the dilution in each case, contained falling concentrations of the active compound. The agar plates were inoculated using a multipoint inoculator (Denley). For inoculation, overnight cultures of the pathogenic organisms were used which had previously been diluted such that each inoculation point contained about 10^4 colony-forming particles. The inoculated agar plates were incubated at 37° C., and the microbial growth was read off after about 20 hours. The MIC (μg/ml) indicates the lowest active compound concentration at which it was not possible to detect growth using the naked eye.

[1] = tested on: Mycobacterium smegmatis DSM 43465; assay: MIC by broth microdilution, Mycobacterium smegmatis DSM 43465; conditions: Mycolicibacterium smegmatis, DSM43465
Procedure: (§2) For rapidly growing mycobacteria, the MIC determination was carried out following the method of broth microdilution described by Swenson [cf. J. M. Swenson, C. Thornberry, U. A. Silcox, Rapidly growing mycobacteria. Testing of susceptibility to 34 antimicrobial agents by broth microdilution. Antimicrobial Agents and Chemotherapy Vol. 22, 186-192 (1982)]. A deviation from this was the brain-heart extract medium treated with 0.1% by volume of Tween 80.
(§3) The mycobacterial strains used wvere ordered from DSM (German Collection of Microorganisms, Brunswick). They were incubated at 37° C. in a humid chamber.
(§4) The MICs were read off after 2-4 days when the preparation-free controls were cloudy as a result of growth.

Klebs. 57 USA = assay: MIC by serial dilution on Iso-Sensitest agar, Klebs. 57 USA; conditions: 37° C., about 20 hours, about 10^4 colony-forming particles
Procedure: as §1

Staph 25701 = assay: MIC by serial dilution on Iso-Sensitest agar, Staph 25701; conditions: 37° C., about 20 hours, about 10^4 colony-forming particles
Procedure: as §1

Staph. 48N = assay: MIC by serial dilution on Iso-Sensitest agar, Staph. 48N; conditions: 37° C., about 20 hours, about 10^4 colony-forming particles
Procedure: as §1

E. coli Neumann = assay: MIC by serial dilution on Iso-Sensitest agar, E. coli Neumann; conditions: Escherichia coli, 37° C., about 20 hours, about 10^4 colony-forming particles
Procedure: as §1

Staph. 9TV = assay: MIC by serial dilution on Iso-Sensitest agar, Staph. 9TV; conditions: 37° C., about 20 hours, about 10^4 colony-forming particles
Procedure: as §1

[2] = tested on: Mycobacterium smegmatis DSM 43061; assay: MIC by broth microdilution, Mycobacterium smegmatis DSM 43061; conditions: Mycolicibacterium smegmatis, DSM43061
Procedure: as §2, §3, §4

Staph. 133 = assay: MIC by serial dilution on Iso-Sensitest agar, Staph. 133; conditions: 37° C., about 20 hours, about 10^4 colony-forming particles
Procedure: as §1

[3] = DSM 43465, inoculum 3.10U+04 /ml, brain-heart extract medium with 0.1% Tween 80, 37° C., 2-4 days, read-out: MIC
[4] = DSM 43061, inoculum 2.20U+04 /ml, brain-heart extract medium with 0.1% Tween 80, 37° C., 2-4 days, read-out: MIC

| MIC (Psdm. Bonn) | MIC [1, 3] | MIC (Klebs. 57 USA) | MIC (Staph 25701) | MIC (Staph. 48N) | MIC (E. coli Neumann) | MIC (Staph. 9TV) | MIC [2, 4] | MIC (Staph. 133) | SMILES | MIC [1] | MIC [2] |
| --- | --- | --- | --- | --- | --- | --- | --- | --- | --- | --- | --- |
|  | 4 µg/mL (≈ 11.8 µM) |  |  |  |  |  | 8 µg/mL (≈ 23.5 µM) |  | CC(=O)NC[C@H]1CN(c2ccc3c(ccc(=O)n3CC#N)c2)C(=O)O1 [Example 6] |  |  |
| > 32 µg/mL |  | > 32 µg/mL | 8 µg/mL (≈ 23.2 µM) | 8 µg/mL (≈ 23.2 µM) | > 32 µg/mL | 2 µg/mL (≈ 5.79 µM) |  | 8 µg/mL (≈ 23.2 µM) | CC(=O)NC[C@H]1CN(c2ccc3c(ccc(=O)n3CCO)c2)C(=O)O1 [Example 7] |  |  |
| > 64 µg/mL |  | > 64 µg/mL | 8 µg/mL (≈ 21.1 µM) | 8 µg/mL (≈ 21.1 µM) | > 64 µg/mL | 4 µg/mL (≈ 10.5 µM) |  | 8 µg/mL (≈ 21.1 µM) | CC(=O)NC[C@H]1CN(c2ccc3c(ccc(=O)n3S(C)(=O)=O)c2)C(=O)O1 [Example 12] |  |  |
|  | 1 µg/mL (≈ 7.29 µM) |  |  |  |  |  | 4 µg/mL (≈ 29.2 µM) |  | NNC(=O)c1ccncc1 [Isoniazide, reference compound] |  |  |

More lines, now with the values behind:

| SMILES | MIC (Psdm. Bonn) | MIC [1, 3] | MIC (Klebs. 57 USA) | MIC (Staph 25701) | MIC (Staph. 48N) | MIC (E. coli Neumann) | MIC (Staph. 9TV) | MIC [2, 4] | MIC (Staph. 133) | MIC [1] | MIC [2] |
| --- | --- | --- | --- | --- | --- | --- | --- | --- | --- | --- | --- |
| CC(=O)NC[C@H]1CN(c2ccc3c(ccc(=O)n3C)c2)C(=O)O1 [Example 3] | > 64 µg/mL | 8 µg/mL (≈ 25.4 µM) | > 64 µg/mL | 2 µg/mL (≈ 6.34 µM) | 2 µg/mL (≈ 6.34 µM) | > 64 µg/mL | 1 µg/mL (≈ 3.17 µM) | 2 µg/mL (≈ 6.34 µM) | 2 µg/mL (≈ 6.34 µM) |  |  |
| CCn1c(=O)ccc2cc(N3C[C@H](CNC(C)=O)OC3=O)ccc21 [Example 4] |  | 8 µg/mL (≈ 24.3 µM) | > 64 µg/mL | 4 µg/mL (≈ 12.1 µM) | 8 µg/mL (≈ 24.3 µM) | > 64 µg/mL | 2 µg/mL (≈ 6.07 µM) | 4 µg/mL (≈ 12.1 µM) | 4 µg/mL (≈ 12.1 µM) |  |  |
| CC(=O)NC[C@H]1CN(c2ccc3c(ccc(=O)n3C(C)C)c2)C(=O)O1 [Example 5] | > 64 µg/mL |  | > 64 µg/mL | 16 µg/mL (≈ 46.6 µM) | 16 µg/mL (≈ 46.6 µM) | > 64 µg/mL | 8 µg/mL (≈ 23.3 µM) |  | 16 µg/mL (≈ 46.6 µM) |  |  |
| [H]/N=C(/N)N[C@H]1[C@H](O)[C@@H](O)[C@H](O[C@@H]2O[C@@H](C)[C@](O)(C=O)[C@H]2O[C@@H]2O[C@@H](CO)[C@H](O)[C@@H](O)[C@@H]2NC)[C@@H](N/C(N)=N\[H])[C@@H]1O [Streptomycin, reference compound] |  |  |  |  |  |  |  |  |  | 4 µg/mL (≈ 6.88 µM) | 4 µg/mL (≈ 6.88 µM) |
